{"source": "paper PMC4059246", "about": "(Journal of Medicinal Chemistry, 2014)", "key": {"RPA194 [1]": {"system": "RPA194", "experiment": "Western blotting for RPA194 in U2OS cell lysates", "format": "cell-based"}, "[2]": {"conditions": "after 25 mg/kg ip dose; cited from earlier work"}, "NCI60 cancer cell lines": {"system": "NCI60 cancer cell lines", "conditions": "cited from earlier work"}, "tumor burden": {"system": "tumor burden", "conditions": "mouse xenograft assays; cited from earlier work"}, "U2OS cells": {"system": "U2OS cells", "experiment": "Cell viability, WST-1 assay", "conditions": "U2OS cells, 0, 0.5, 5 μM, 48 h, WST-1 (Figure 5)"}, "[3]": {"experiment": "Human liver microsomal stability assay", "conditions": "for In vitro stability compared with compound 2: human liver microsomes"}, "NCL [4]": {"system": "NCL", "experiment": "Western blotting for NCL in U2OS cell lysates", "conditions": "U2OS cells, 0, 0.1, 1, 10 μM, 3 h (Figure 4)"}, "NCL [5]": {"system": "NCL", "conditions": "U2OS cells, 0.5 μM, 3 h (Figure 2B)"}, "RPA194 [6]": {"system": "RPA194", "conditions": "for Effect on expression of RPA194: U2OS cells, 0.5 μM, 3 h, representative images (Figure 2A)"}, "[7]": {"conditions": "U2OS cells, 0, 0.1, 1, 10 μM, 3 h (Figure 4)"}, "[8]": {"conditions": "RPA194 and NCL assays in U2OS cells"}}, "note": "Read-outs that look alike come from different tables or passages of the source.", "data": [{"smiles": "CN(C)CCNC(=O)c1cccn2c(=O)c3cc4ccccc4cc3nc12", "note": "[Compound 2, N-[2-(Dimethylamino)ethyl]-12-oxo-12H-benzo[g]pyrido[2,1-b]quinazoline-4-carboxamide]", "values": [{"measurement": "Degradation of RPA194 by Western blotting", "setting": "RPA194 [1]; [7]", "result": "caused degradation of RPA194"}, {"measurement": "half-life", "setting": "[2]", "result": 2.5, "unit": "h"}, {"measurement": "Anticancer activity", "setting": "NCI60 cancer cell lines", "result": "broad and potent anticancer activity"}, {"measurement": "Tumor burden", "setting": "tumor burden", "result": "reduced tumor burden"}, {"measurement": "Effect on cell viability", "setting": "U2OS cells", "result": "profound loss of cell viability"}, {"measurement": "Major metabolites", "setting": "[3]; identification of the major metabolites, method not described", "result": "N-dealkylation as one of several major metabolites"}, {"measurement": "Expression of NCL by Western blotting", "setting": "NCL [4]", "result": "largely unaffected except at very high (10 μM) concentrations"}]}, {"smiles": "O=C(NCCN1CCCCC1)c1cccn2c(=O)c3cc4ccccc4cc3nc12", "note": "[Compound 8, 12-Oxo-N-[2-(1-piperidyl)ethyl]-12H-benzo[g]pyrido[2,1-b]quinazoline-4-carboxamide]", "values": [{"measurement": "Degradation of RPA194 by Western blotting", "setting": "RPA194 [1]; [7]", "result": "caused degradation of RPA194"}, {"measurement": "Effect on nucleolar localization of NCL", "setting": "NCL [5]", "result": "decreased the nucleolar localization of NCL"}, {"measurement": "Effect on cell viability", "setting": "U2OS cells", "result": "profound loss of cell viability"}, {"measurement": "In vitro stability compared with compound 2", "setting": "[3]", "result": "did not improve stability"}]}, {"smiles": "O=C(NCCN1CCCC1)c1cccn2c(=O)c3cc4ccccc4cc3nc12", "note": "[Compound 9, 12-Oxo-N-(2-pyrrolidin-1-ylethyl)-12H-benzo[g]pyrido[2,1-b]quinazoline-4-carboxamide]", "values": [{"measurement": "Effect on expression of RPA194", "setting": "RPA194 [6]", "result": "almost complete loss of expression of RPA194"}, {"measurement": "Effect on nucleolar localization of NCL", "setting": "NCL [5]", "result": "decreased the nucleolar localization of NCL"}, {"measurement": "Effect on cell viability", "setting": "U2OS cells", "result": "profound loss of cell viability"}, {"measurement": "In vitro stability compared with compound 2", "setting": "[3]", "result": "did not improve stability"}]}, {"smiles": "CCN(CC)CCNC(=O)c1cccn2c(=O)c3cc4ccccc4cc3nc12", "note": "[Compound 10, N-[2-(Diethylamino)ethyl]-12-oxo-12H-benzo[g]pyrido[2,1-b]quinazoline-4-carboxamide]", "values": [{"measurement": "Effect on nucleolar localization of NCL", "setting": "NCL [5]", "result": "decreased the nucleolar localization of NCL"}, {"measurement": "In vitro stability compared with compound 2", "setting": "[3]", "result": "did not improve stability"}]}, {"smiles": "CC(CN(C)C)NC(=O)c1cccn2c(=O)c3cc4ccccc4cc3nc12", "note": "(centres unmarked) [Compound 11, N-[2-(Dimethylamino)-1-methylethyl]-12-oxo-12H-benzo[g]pyrido[2,1-b]quinazoline-4-carboxamide]", "values": [{"measurement": "Degradation of RPA194 by Western blotting", "setting": "RPA194 [1]; [7]", "result": "caused degradation of RPA194"}, {"measurement": "Effect on nucleolar localization of NCL", "setting": "NCL [5]", "result": "decreased the nucleolar localization of NCL"}]}, {"smiles": "O=C(NC1CNC1)c1cccn2c(=O)c3cc4ccccc4cc3nc12", "note": "[Compound 12, N-(Azetidin-3-yl)-12-oxo-12H-benzo[g]pyrido[2,1-b]quinazoline-4-carboxamide]", "values": [{"measurement": "Effect on nucleolar localization of NCL", "setting": "NCL [5]", "result": "decreased the nucleolar localization of NCL"}]}, {"smiles": "CC(CNC(=O)c1cccn2c(=O)c3cc4ccccc4cc3nc12)N(C)C", "note": "(centres unmarked) [Compound 13, N-[2-(Dimethylamino)propyl]-12-oxo-12H-benzo[g]pyrido[2,1-b]quinazoline-4-carboxamide]", "values": [{"measurement": "Effect on expression of RPA194", "setting": "RPA194 [6]", "result": "almost complete loss of expression of RPA194"}, {"measurement": "Effect on nucleolar localization of NCL", "setting": "NCL [5]", "result": "decreased the nucleolar localization of NCL"}, {"measurement": "Effect on cell viability", "setting": "U2OS cells", "result": "profound loss of cell viability"}]}, {"smiles": "CN(C)CCCCNC(=O)c1cccn2c(=O)c3cc4ccccc4cc3nc12", "note": "[Compound 14, N-[4-(Dimethylamino)butyl]-12-oxo-12H-benzo[g]pyrido[2,1-b]quinazoline-4-carboxamide]", "values": [{"measurement": "Degradation of RPA194 by Western blotting", "setting": "RPA194 [1]; [7]", "result": "less potent"}, {"measurement": "Effect on cell viability", "setting": "U2OS cells", "result": "little or no activity"}]}, {"smiles": "CN(C)CCNC(=O)c1cccn2c(=O)c3ccccc3nc12", "note": "[Compound 15, N-[2-(Dimethylamino)ethyl]-11-oxopyrido[2,1-b]quinazoline-6-carboxamide]", "values": [{"measurement": "Degradation of RPA194 by Western blotting", "setting": "RPA194 [1]; [7]", "result": "less potent"}, {"measurement": "Decrease in potency relative to compound 2", "setting": "RPA194 [6]", "result": "over 40 fold"}, {"measurement": "Effect on expression of RPA194", "setting": "RPA194 [6]", "result": "no effect"}, {"measurement": "Effect on cell viability", "setting": "U2OS cells", "result": "little or no activity"}]}, {"smiles": "CCN(CC)CCNC(=O)c1cccn2c(=O)c3ccccc3nc12", "note": "[Compound 16, N-[2-(Diethylamino)ethyl]-11-oxopyrido[2,1-b]quinazoline-6-carboxamide]", "values": [{"measurement": "Decrease in potency relative to compound 2", "setting": "RPA194 [6]; RPA194/NCL assays in U2OS cells, versus compound 2", "result": "over 40 fold"}]}, {"smiles": "CN(C)CCOC(=O)c1cccn2c(=O)c3cc4ccccc4cc3nc12", "note": "[Compound 17, 2-(Dimethylamino)ethyl 12-Oxo-12H-benzo[g]pyrido[2,1-b]quinazoline-4-carboxylate]", "values": [{"measurement": "Biological activity (in words)", "setting": "RPA194 [6]; [8]", "result": "significant loss in potency"}]}, {"smiles": "CN(C)CCN(C)C(=O)c1cccn2c(=O)c3cc4ccccc4cc3nc12", "note": "[Compound 18, N-[2-(Dimethylamino)ethyl]-N-methyl-12-oxo-12H-benzo[g]pyrido[2,1-b]quinazoline-4-carboxamide]", "values": [{"measurement": "Degradation of RPA194 by Western blotting", "setting": "RPA194 [1]", "result": "inactive"}, {"measurement": "Effect on cell viability", "setting": "U2OS cells", "result": "little or no activity"}]}, {"smiles": "CC(C)N1CCN(C(=O)c2cccn3c(=O)c4cc5ccccc5cc4nc23)CC1", "note": "[Compound 31, 4-(4-Isopropylpiperazine-1-carbonyl)-12H-benzo[g]pyrido[2,1-b]quinazoline-12-one]", "values": [{"measurement": "Biological activity (in words)", "setting": "RPA194 [6]", "result": "inactive"}]}, {"smiles": "CN(C)[C@H]1CCN(C(=O)c2cccn3c(=O)c4cc5ccccc5cc4nc23)C1", "note": "[Compound 33, 4-[(3S)-3-(Dimethylamino)pyrrolidine-1-carbonyl]-12H-benzo[g]pyrido[2,1-b]quinazoline-12-one]", "values": [{"measurement": "Biological activity (in words)", "setting": "RPA194 [6]; [8]", "result": "inactive"}]}, {"smiles": "CCN(CC)C1CCN(C(=O)c2cccn3c(=O)c4cc5ccccc5cc4nc23)C1", "note": "(centres unmarked) [Compound 34, 4-[3-(Diethylamino)pyrrolidine-1-carbonyl]-12H-benzo[g]pyrido[2,1-b]quinazoline-12-one]", "values": [{"measurement": "Biological activity (in words)", "setting": "RPA194 [6]; [8]", "result": "inactive"}]}, {"smiles": "O=C(NCCN1CCOCC1)c1cccn2c(=O)c3cc4ccccc4cc3nc12", "note": "[Compound 36, N-(2-Morpholinoethyl)-12-oxo-12H-benzo[g]pyrido[2,1-b]quinazoline-4-carboxamide]", "values": [{"measurement": "Degradation of RPA194 by Western blotting", "setting": "RPA194 [1]; [7]", "result": "less potent"}, {"measurement": "Effect on cell viability", "setting": "U2OS cells", "result": "little or no activity"}]}]}
